In patent US11292791B2 (priority 2017, dated 2022):

molecular target: BRD4 (Homo sapiens (Human), UniProt O60885); conditions: read-out: BRD4 IC50 (μM gmean)

**Q.** How did the IC50 turn out when `COC(=O)N1c2ccc3c(nc(Cc4ccccc4)n3CC(=O)O)c2CC[C@@H]1C` [Example 285, (S)-2-(2-benzyl-6-(methoxycarbonyl)-7-methyl-6,7,8,9-tetrahydro-3H-imidazo[4,5-f]quinolin-3-yl)acetic Acid] was run?
**A.** 1 to 1000 µM

**Q.** How did the IC50 turn out when `COC(=O)N1c2ccc3c(nc(N(C)c4ccc(C#N)cc4)n3[C@H]3CC[C@H](C(=O)O)CC3)c2CC[C@@H]1C` [Example 769] was run?
**A.** 1 to 1000 µM

**Q.** How did the IC50 turn out when `COC(=O)N1c2ccc3c(nc(CCn4ccccc4=O)n3CC(=O)N3CCNC(=O)C3)c2CC[C@@H]1C` [Example 400] was run?
**A.** 1 to 1000 µM

**Q.** Which IC50 does the source give for `COC(=O)N1c2ccc3c(nc(CCn4cccn4)n3C3CCC4(CC3)CNC4)c2CC[C@@H]1C` [Example 109] here?
**A.** 1 to 1000 µM

**Q.** `COC(=O)N1c2ccc3c(nc(CCn4cccn4)n3CC(=O)NCc3cc(C)no3)c2CC[C@@H]1C` [Example 363] was tested. Which IC50 did it give?
**A.** 1 to 1000 µM

**Q.** Which IC50 does the source give for `COC(=O)N1c2ccc3c(nc(CCn4cccn4)n3CC(=O)N(C)CC(C)(C)O)c2CC[C@@H]1C` [Example 361] here?
**A.** 1 to 1000 µM

**Q.** With `COC(=O)N1c2ccc3c(nc(CCn4cccn4)n3C3CCS(=O)(=O)CC3)c2CC[C@@H]1C` [Example 262] as the molecule, how does the IC50 read?
**A.** 1 to 1000 µM

**Q.** With `COC(=O)N1c2ccc3c(nc(CC(C(=O)O)c4ccc(C)c(F)c4)n3C3CCCOC3)c2CC[C@@H]1C` (some centres unmarked) [Example 845] as the molecule, how does the IC50 read?
**A.** 1 to 1000 µM

**Q.** With `COC(=O)N1c2ccc3c(nc(CC(C(=O)O)c4ccccc4)n3-c3cccc(OC)c3)c2CC[C@@H]1C` (some centres unmarked) [Example 786] as the molecule, how does the IC50 read?
**A.** 1 to 1000 µM

**Q.** `COC(=O)N1c2ccc3c(nc(Cc4ccccc4)n3[C@H]3CC[C@@H](C#N)CC3)c2CC[C@@H]1C` [Example 256] was tested. Which IC50 did it give?
**A.** 1 to 1000 µM

**Q.** With `COC(=O)N1c2ccc3c(nc(CCn4ccccc4=O)n3CC(=O)N3CC[C@H](C(N)=O)C3)c2CC[C@@H]1C` [Example 388] as the molecule, how does the IC50 read?
**A.** 1 to 1000 µM

**Q.** With `COC(=O)N1c2ccc3c(nc(Cc4ccccc4)n3C3CCN(C)CC3)c2CC[C@@H]1C` [Example 257] as the molecule, how does the IC50 read?
**A.** 1 to 1000 µM

**Q.** How did the IC50 turn out when `COC(=O)N1c2ccc3c(nc(Cc4ccccc4)n3C3CCCCC3)c2CC[C@@H]1C` [Example 263] was run?
**A.** 1 to 1000 µM

**Q.** For `COC(=O)N1c2ccc3c(nc(CCn4ccccc4=O)n3CCN3CCN(C)CC3)c2CC[C@@H]1C` [Example 230], which IC50 is on record?
**A.** 1 to 1000 µM

**Q.** Which IC50 does the source give for `COC(=O)N1c2ccc3c(nc(Cc4cnc(C)cn4)n3[C@@H]3CCC[C@@H](C(=O)O)C3)c2CC[C@@H]1C` [Example 738] here?
**A.** 1 to 1000 µM

**Q.** With `C/C=C(\Oc1ccccc1)c1nc2c3c(ccc2n1[C@@H]1CCC[C@@H](C(=O)O)C1)N(C(=O)OC)[C@@H](C)CC3` [Example 522] as the molecule, how does the IC50 read?
**A.** 1 to 1000 µM

**Q.** For `COC(=O)N1c2ccc3c(nc(Cc4ccccc4)n3CC3CCNCC3)c2CC[C@@H]1C` [Example 93], which IC50 is on record?
**A.** 1 to 1000 µM

**Q.** Which IC50 does the source give for `COC(=O)N1c2ccc3c(nc(CC(C(=O)O)c4ccccc4)n3-c3ccc(C#N)cc3)c2CC[C@@H]1C` (some centres unmarked) [Example 914] here?
**A.** 1 to 1000 µM

**Q.** With `COC(=O)N1c2ccc3c(nc(C(CO)c4ccccc4)n3C3CCC(C(=O)O)CC3)c2CC[C@@H]1C` (some centres unmarked) [Example 582] as the molecule, how does the IC50 read?
**A.** 1 to 1000 µM

**Q.** With `COC(=O)N1c2ccc3c(nc(Cc4nccc(C)n4)n3[C@@H]3CCC[C@@H](C(=O)O)C3)c2CC[C@@H]1C` [Example 820] as the molecule, how does the IC50 read?
**A.** 1 to 1000 µM

**Q.** With `COC(=O)N1c2ccc3c(nc(CCn4ccccc4=O)n3CC(=O)N[C@H]3CC[C@H](CO)CC3)c2CC[C@@H]1C` [Example 377] as the molecule, how does the IC50 read?
**A.** 1 to 1000 µM

**Q.** For `COC(=O)N1c2ccc3c(nc(CCn4cc(Cl)cn4)n3[C@@H]3CCC[C@@H](C(=O)O)C3)c2CC[C@@H]1C` [Example 628], which IC50 is on record?
**A.** 1 to 1000 µM

**Q.** With `COC(=O)N1c2ccc3c(nc(CC(C(=O)O)c4ccc(C)c(F)c4)n3C3CCCOC3)c2CC[C@@H]1C` (some centres unmarked) [Example 783] as the molecule, how does the IC50 read?
**A.** 1 to 1000 µM

**Q.** For `COC(=O)N1c2ccc3[nH]c(CCc4ccccn4)nc3c2CC[C@@H]1C` [Example 12], which IC50 is on record?
**A.** 1 to 1000 µM

**Q.** For `COC(=O)N1c2ccc3c(nc(C[C@@H](C(=O)O)c4ccccc4)n3C)c2CC[C@@H]1C` [Example 133, (2R)-3-[(7S)-6-(methoxycarbonyl)-3,7-dimethyl-3H,6H,7H,8H,9H-imidazo[4,5-f]quinolin-2-yl]-2-phenylpropanoic Acid], which IC50 is on record?
**A.** 1 to 1000 µM

**Q.** With `COC(=O)N1c2ccc3c(nc(CCc4ncc(C)o4)n3[C@H]3CC[C@H](C(=O)O)CC3)c2CC[C@@H]1C` [Example 35] as the molecule, how does the IC50 read?
**A.** 1 to 1000 µM
